{"source": "paper PMC9822553", "about": "(iScience, 2023)", "key": {"SARS-CoV-2 Delta": {"system": "SARS-CoV-2 Delta", "type": "cell-based"}, "SARS-CoV-2 Omicron": {"system": "SARS-CoV-2 Omicron", "type": "cell-based"}}}
{"compound": "Cc1cc(C)nc(NC(=S)N2CCN(Cc3ccc(C(F)(F)F)cc3)CC2)c1", "note": "[NCT-503]", "values": [{"measurement": "effect on SARS-CoV-2 replication in ALI HBE cultures", "setting": "SARS-CoV-2 Delta", "value": "inhibited SARS-CoV-2 replication"}, {"measurement": "inhibition of Omicron-induced caspase 3/7 activation", "setting": "SARS-CoV-2 Omicron", "value": "inhibited"}]}
{"compound": "CCN(CCO)CCCC(C)Nc1ccnc2cc(Cl)ccc12", "note": "(stereo not shown) [hydroxychloroquine]", "values": [{"measurement": "drug-induced phospholipidosis", "setting": "Vero cells", "value": "considerable phospholipidosis"}, {"measurement": "drug-induced phospholipidosis", "setting": "A549-ACE2 cells", "value": "considerable phospholipidosis"}]}
